The values that follow are results of earlier work, collected in patent publication US12527751B2, “Oral thin film with high active agent loading” (LTS LOHMANN THERAPIE-SYSTEME AG, priority 2017, dated 2026).

Each structure is given as a SMILES string.

For this data set the following is noted: compared with (R) ketamine.

Turning to `CNC1(c2ccccc2Cl)CCCCC1=O` (racemic) [(S) ketamine, (S)-(±)-2-(2-chlorophenyl)-2-(methylamino)cyclohexan-1-one], the “Analgesic and anaesthetic potency relative to the (R) form” value is recorded as “approximately three times higher”.
